Measured values taken from patent publication US5830855A, “Lipodepsipeptides as antifungal and fungicidal agents” (priority 1996, dated 1998).
Values after ≈ are worked out from the molar mass of the structure shown. Numbered stars: 1 amine (or outer) side, 2 acyl side, 3 side chain; on linkers, the order of the positions; unused ones are H or OH. Bridge positions count the residues as written; N and C are the ends. Square brackets hold non-standard residues; d marks the D form. Peptide text beside a SMILES is read from it. * marks the point of attachment. ξ: configuration not given here. ξAsp(3ξ-OH) = NC(C(=O)O)C(O)C(=O)O; X3 = O=C(C(N[*:1])C(O)CCl)[*:2]; X2 = CCCCCCCCCCCC(O)CC(=O)*; Orn = NCCC[CH](N)C(=O)O; hSer = N[CH](CCO)C(=O)O; Dab = NCC[CH](N)C(=O)O; Dhb = C/C=C(\N)C(=O)O

Assays:
fungal isolates = assay: Fungicidal activity (MFC), fungal isolates overall; assay type: cell-based, fungi; details: Table 2 organisms
Procedure: (§1) Medium: Liquid RPMI 1640 (RPMI) medium with L-glutamine and without sodium bicarbonate (Sigma Chemical Co., R-6504; St. Louis, Mo.) buffered with 0.165M MOPS (34.54 g/liter) was used for in vitro antifungal tests. The medium was adjusted to pH 7.0 with 10M NaOH and filter sterilized.
(§2) Lipodepsipeptide Dilutions: All stock drug solution concentrations were at least 10-fold higher than the highest concentration tested. AmB, ketoconazole, and the test compounds (SR-E, ST-B, and SS-A) were dissolved in sterile distilled water, 0.2N HCl, and 0.001N HCl, respectively. Each stock solution was diluted to 2× the highest concentration of drug tested with RPMI. Two-fold dilutions were made with RPMI medium.
Preparation of Inoculum Suspensions: On Sabouraud dextose agar (SDA; BBL, Becton and Dickinson and Co., Cockeysville, Md.) all isolates were subcultured at least twice before use to ensure purity and viability. […] The turbidity of each mixed suspension was measured at 530 nm and adjusted to 1×10^6 to 5×10^6 CFU/ml by the NCCLS spectrophotometric method described by National Committee for Clinical Laboratory Standards. […]
Aspergillus fumigatus and Mucor spp. were grown for 1 wk at 35° C. […] The stock suspensions of all filamentous fungi were measured at 530 nm and adjusted to 85-87% transmission. The concentration (1×10^6 to 5×10^6 CFU/ml) was determined by hemacytometer count or plate count on SDA. […]

Microsporum spp. [1] = assay: Broth microdilution MIC; assay type: cell-based; details: Table 1 (MICs), 2 isolates, 7 days
Procedure: as §1, §2
(§3) Preparation of Inoculum Suspensions: On Sabouraud dextose agar (SDA; BBL, Becton and Dickinson and Co., Cockeysville, Md.) all isolates were subcultured at least twice before use to ensure purity and viability. Candida spp. and Saccharomyces cerevisiae were grown for 24 hr at 35° C. Isolates of Cryptococcus neoformans were grown for 48 hr at 35° C. Yeast cells from at least five 1-mm-diameter colonies were suspended in 5 ml of sterile 0.85% saline. The resulting suspension was vortexed for 15 sec. The turbidity of each mixed suspension was measured at 530 nm and adjusted to 1×10^6 to 5×10^6 CFU/ml by the NCCLS spectrophotometric method described by National Committee for Clinical Laboratory Standards. 1992. Reference method for broth dilution antifungal susceptibility testing of yeasts; proposed standard, NCCLS document M27-P (ISBN 1-56238-186-5). NCCLS, Villanova. The final transmission of each yeast suspension ranged from 85-87%.
(§4) Aspergillus fumigatus and Mucor spp. were grown for 1 wk at 35° C. The dermatophytes, Microsporum spp. and Trichophyton spp., were grown for two wk at 30° C. Fungal spores were washed from the plates of all good spore formers (A. fumigatus, Mucor spp., Microsporum canis and Trichophyton spp.) by placing 5 ml of 0.85% saline with 0.2% Tween 80 on the plates and mixing with an inoculating loop. The spore/mycelium suspension was drawn off with a pipette and allowed to settle for at least 5 min. For the poor spore-forming Microsporum audouinii, the procedure was the same except the spore/mycelial suspension was homogenized with a ground glass tissue homogenizer and then allowed to settle for at least 5 min. A small amount of the supernatant was transferred to 5 ml of sterile saline and vortexed. The stock suspensions of all filamentous fungi were measured at 530 nm and adjusted to 85-87% transmission. The concentration (1×10^6 to 5×10^6 CFU/ml) was determined by hemacytometer count or plate count on SDA. All stock suspensions were diluted 1000-fold with RPMI, or 2× the final desired test inocula. The 2× inoculum was diluted 1:1 when the wells were inoculated, and the desired inoculum size was achieved.
(§5) Broth Microdilution Test: Broth microdilution tests were performed using sterile, disposable, multiwell microdilution plates (96 round U-bottom wells) (Falcon 3077; Becton and Dickinson Labware, Lincoln Park, N.J.). The drugs (2× concentrations) were dispensed into the wells of rows number 1 to 10 of the microdilution plates in 100 μl volumes from highest drug concentration to lowest drug concentration. Each well was inoculated with 100 μl of the corresponding 2× concentrated fungal suspension. The wells of row 11 contained the inoculum with drug-free media as a positive growth control and the wells of row 12 contained uninoculated-drug-free medium as a sterility control.
(§6) Incubation and Scoring of MIC: All cultures were incubated without shaking at the temperature used during subculture. Incubation times were 48 hr for Candida spp., S. cerevisiae, A. fumigatus, and Mucor spp; 72 hr for C. neoformans; and 7 days for Microsporum and Trichophyton spp. […]

Saccharomyces cerevisiae [2] = assay: Broth microdilution MIC; assay type: cell-based; details: Table 1 (MICs), 1 strain tested more than once (control ATCC 36375), 48 hr
Procedure: as §1, §2, §3, §4, §5, §6

Candida krusei [3] = assay: Broth microdilution MIC; assay type: cell-based; details: Table 1 (MICs), 2 isolates, 48 hr
Procedure: as §1, §2, §3, §4, §5, §6

Candida albicans [4] = assay: Broth microdilution MIC; assay type: cell-based; details: for MIC range: Table 1 (MICs), Candida albicans, 20 isolates, RPMI pH 7.0, 48 hr, Ktz read at score 2, others at score 0
Procedure: as §1, §2, §3, §4, §5, §6

Candida kefyr [5] = assay: Broth microdilution MIC; assay type: cell-based; details: Table 1 (MICs), 1 isolate, 48 hr
Procedure: as §1, §2, §3, §4, §5, §6

Cryptococcus neoformans [6] = assay: Broth microdilution MIC; assay type: cell-based; details: Table 1 (MICs); Cryptococcus neoformans, 14 isolates; 72 hr
Procedure: as §1, §2, §3, §4, §5, §6

Trichophyton spp. [7] = assay: Broth microdilution MIC; assay type: cell-based; details: Table 1 (MICs), 3 isolates, 7 days
Procedure: as §1, §2, §3, §4, §5, §6

Candida rugosa [8] = assay: Broth microdilution MIC; assay type: cell-based; details: Table 1 (MICs); Candida rugosa, 2 isolates; 48 hr
Procedure: as §1, §2, §3, §4, §5, §6

Candida parapsilosis [9] = assay: Broth microdilution MIC; assay type: cell-based; details: Table 1 (MICs), 2 isolates, 48 hr
Procedure: as §1, §2, §3, §4, §5, §6

Candida lusitaniae [10] = assay: Broth microdilution MIC; assay type: cell-based; details: Table 1 (MICs), 2 isolates, 48 hr
Procedure: as §1, §2, §3, §4, §5, §6

Candida tropicalis [11] = assay: Broth microdilution MIC; assay type: cell-based; details: Table 1 (MICs); Candida tropicalis, 2 isolates; 48 hr
Procedure: as §1, §2, §3, §4, §5, §6

Saccharomyces cerevisiae [12] = assay: Minimum Fungicidal Concentration (MFC); assay type: cell-based; details: Table 2, 1 strain tested more than once, 24 hr
Procedure: as §1, §2, §3, §4, §5, §6

Candida krusei [13] = assay: Minimum Fungicidal Concentration (MFC); assay type: cell-based; details: Table 2, 2 isolates, 24 hr
Procedure: as §1, §2, §3, §4, §5, §6

Candida kefyr [14] = assay: Minimum Fungicidal Concentration (MFC); assay type: cell-based; details: Table 2, 1 isolate, 24 hr
Procedure: as §1, §2, §3, §4, §5, §6

Candida rugosa [15] = assay: Minimum Fungicidal Concentration (MFC); assay type: cell-based; details: Table 2, 2 isolates, 24 hr
Procedure: as §1, §2, §3, §4, §5, §6

Candida parapsilosis [16] = assay: Minimum Fungicidal Concentration (MFC); assay type: cell-based; details: Table 2, 2 isolates, 24 hr
Procedure: as §1, §2, §3, §4, §5, §6

Candida lusitaniae [17] = assay: Minimum Fungicidal Concentration (MFC); assay type: cell-based; details: Table 2, 2 isolates, 24 hr
Procedure: as §1, §2, §3, §4, §5, §6

Candida tropicalis [18] = assay: Minimum Fungicidal Concentration (MFC); assay type: cell-based; details: Table 2, 2 isolates, 24 hr
Procedure: as §1, §2, §3, §4, §5, §6

Aspergillus fumigatus [19] = assay: Broth microdilution MIC; assay type: cell-based; details: Table 1 (MICs), 16 isolates, 48 hr
Procedure: as §1, §2, §3, §4, §5, §6

Microsporum spp. [20] = assay: Minimum Fungicidal Concentration (MFC); assay type: cell-based; details: Table 2, 2 isolates, 7 d
Procedure: as §1, §2, §3, §4, §5, §6

Candida albicans [21] = assay: Minimum Fungicidal Concentration (MFC); assay type: cell-based; details: Table 2, 20 isolates, subculture on drug-free SDA 24 hr
Procedure: as §1, §2, §3, §4, §5, §6

Cryptococcus neoformans [22] = assay: Minimum Fungicidal Concentration (MFC); assay type: cell-based; details: Table 2, 14 isolates, 48 hr
Procedure: as §1, §2, §3, §4, §5, §6

Trichophyton spp. [23] = assay: Minimum Fungicidal Concentration (MFC); assay type: cell-based; details: Table 2, 3 isolates, 7 d
Procedure: as §1, §2, §3, §4, §5, §6

Aspergillus fumigatus [24] = assay: Minimum Fungicidal Concentration (MFC); assay type: cell-based; details: Table 2, 16 isolates, 48 hr
Procedure: as §1, §2, §3, §4, §5, §6

Structure (SMILES) | MIC range (Microsporum spp. [1]) | MFC (μg/ml) range (Saccharomyces cerevisiae [2]) | MIC (μg/ml) range (Candida krusei [3]) | MIC range (Candida albicans [4]) | MIC (μg/ml) range (Candida kefyr [5]) | MIC range (Cryptococcus neoformans [6]) | MIC range (Trichophyton spp. [7]) | MIC range (Candida rugosa [8]) | MIC range (Candida parapsilosis [9]) | MIC range (Candida lusitaniae [10]) | MIC (μg/ml) range (Candida tropicalis [11]) | MFC (μg/ml) range (Saccharomyces cerevisiae [12]) | MFC (μg/ml) range (Candida krusei [13]) | MFC (μg/ml) range (Candida kefyr [14]) | MFC (μg/ml) range (Candida parapsilosis [16]) | MFC (μg/ml) range (Candida lusitaniae [17]) | MFC (μg/ml) range (Candida tropicalis [18]) | other results
CC(=O)N1CCN(c2ccc(OCC3COC(Cn4ccnc4)(c4ccc(Cl)cc4Cl)O3)cc2)CC1 (stereo not shown) [Ktz, ketoconazole, reference compound] | 0.8 to 1.6 µg/mL | 0.15 µg/mL (≈ 0.282 µM) | 0.15 µg/mL (≈ 0.282 µM) | 0.02 to 10 µg/mL | 0.02 µg/mL (≈ 0.0376 µM) | 0.04 to 0.6 µg/mL | 0.4 to 3.1 µg/mL | 0.02 µg/mL (≈ 0.0376 µM) | 0.02 µg/mL (≈ 0.0376 µM) | 0.02 µg/mL (≈ 0.0376 µM) | 0.08 to 0.6 µg/mL | 0.6 to 1.25 µg/mL | 0.15 µg/mL (≈ 0.282 µM) | 1.25 µg/mL (≈ 2.35 µM) | 0.04 µg/mL (≈ 0.0753 µM) | ≤ 0.02 µg/mL | 2.5 to 10 µg/mL | fungicidal activity (fungal isolates): fungicidal activity only against C. krusei; MIC, one strain of C. albicans (Candida albicans [4]; one strain of C. albicans resistant to ketoconazole): 10 µg/mL; MFC (μg/ml) range (Candida rugosa [15]): ≤0.02 to 0.08 µg/mL
C/C=C1\NC(=O)C(C(C)O)NC(=O)C(CCCN)NC(=O)C(CCO)NC(=O)C(CCN)NC(=O)C(CCN)NC(=O)C(NC(=O)CC(O)CCCCCCCCCCC)COC(=O)C(C(O)CCl)NC(=O)C(C(O)C(=O)O)NC1=O (stereo not shown) [SS-A, syringostatin-A] (X2-S[Dab][Dab][hSer][Orn]T[Dhb][ξAsp(3ξ-OH)][X3]; ester 1-C; configuration not given here) | 2.5 to 5 µg/mL | 2.5 µg/mL (≈ 2.12 µM) | 10 µg/mL (≈ 8.48 µM) | 2.5 to 5 µg/mL | 2.5 µg/mL (≈ 2.12 µM) | 2.5 to 10 µg/mL | 2.5 to 5 µg/mL | 10 to 20 µg/mL | 2.5 to 5 µg/mL | 5 µg/mL (≈ 4.24 µM) | 2.5 to 5 µg/mL | 5 µg/mL (≈ 4.24 µM) | 10 to 20 µg/mL | 2.5 µg/mL (≈ 2.12 µM) | 2.5 to 10 µg/mL | 5 µg/mL (≈ 4.24 µM) | 5 µg/mL (≈ 4.24 µM) | MIC range (Aspergillus fumigatus [19]): 5 to 40 µg/mL; MFC (μg/ml) range (Microsporum spp. [20]): 5 µg/mL (≈ 4.24 µM); MFC (μg/ml) range (Candida albicans [21]): 2.5 to 10 µg/mL; MFC (μg/ml) range (Cryptococcus neoformans [22]): 2.5 to 10 µg/mL; MFC (μg/ml) range (Trichophyton spp. [23]): 5 µg/mL (≈ 4.24 µM); MFC (μg/ml) range (Aspergillus fumigatus [24]): 5 to 40 µg/mL
